This experiment deals with T1, Recombinant Human SSAO/VAP-1/AOC3 (Homo sapiens, UniProt Q16853).
T1 construct: purchased R&D systems 3957-AO
T1 sequence (Q16853 1-763): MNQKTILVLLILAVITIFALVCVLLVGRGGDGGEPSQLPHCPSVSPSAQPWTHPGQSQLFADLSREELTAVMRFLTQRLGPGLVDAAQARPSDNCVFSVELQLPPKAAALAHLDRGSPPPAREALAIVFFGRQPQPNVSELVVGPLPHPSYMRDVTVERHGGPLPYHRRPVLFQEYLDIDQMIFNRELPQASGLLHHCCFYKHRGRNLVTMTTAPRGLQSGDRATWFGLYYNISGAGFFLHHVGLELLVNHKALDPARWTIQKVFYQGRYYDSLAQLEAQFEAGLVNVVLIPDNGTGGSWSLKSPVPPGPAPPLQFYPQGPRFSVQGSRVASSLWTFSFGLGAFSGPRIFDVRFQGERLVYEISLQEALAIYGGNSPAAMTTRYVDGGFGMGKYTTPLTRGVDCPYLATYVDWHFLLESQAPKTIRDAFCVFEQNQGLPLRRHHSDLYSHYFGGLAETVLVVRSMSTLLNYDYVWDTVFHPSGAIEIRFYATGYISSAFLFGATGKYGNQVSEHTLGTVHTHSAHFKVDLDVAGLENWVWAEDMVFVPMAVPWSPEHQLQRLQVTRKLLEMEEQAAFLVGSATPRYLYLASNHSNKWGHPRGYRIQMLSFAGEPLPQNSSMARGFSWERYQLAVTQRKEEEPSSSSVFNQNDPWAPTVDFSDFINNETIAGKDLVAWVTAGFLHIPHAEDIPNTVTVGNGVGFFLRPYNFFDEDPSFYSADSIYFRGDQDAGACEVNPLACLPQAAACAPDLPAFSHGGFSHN
Kind of experiment: Human Semicarbazide-Sensitive Amine Oxidase (SSAO) Assay. The class given is biochemical. As to conditions: recombinant enzyme, 30 minutes preincubation at 37° C., benzylamine substrate, Amplex Ultra Red/HRP fluorescence. Here is the method:
Compounds were dissolved in DMSO to provide a Concentration Response Curve (CRC; at 500 times the final concentration) over a range of 6-10 dilutions.
Recombinant Human SSAO/VAP-1/AOC3 (R&D systems; Catalog #3957-AO) was used to screen compound potency in vitro, according to previously described methods (J Pharmacol Exp Ther. 2013 November; 347(2):365-74). SSAO enzyme was suspended in 50 mM HEPES buffer to a working concentration of 2.5 μg/ml and 40 μL of this enzyme mixture was then added to each well of a F16 Black Maxisorp 96 well Plate (Nunc, Catalog #475515). Ten microliters of each test compound (at 5 times the final concentration) were added to each well, resulting in a final well volume of 50 μL of the enzyme and inhibitor mixture. The compounds were preincubated with the enzyme for 30 minutes at 37° C., prior to the addition of a 40 μL volume of Amplex Ultra Red (125 uM AUR; Molecular Probes, Catalog # A36006)/Horseradish peroxidase (2.5 U/ml HRP; Sigma-Aldrich Catalog # P8375) oxidase detection reagent containing cytochrome C ([…]; Sigma-Aldrich Catalog # C7752). Cytochrome C was included in the AUR/HRP detection mixture to reduce the background fluorescence that can occur via the spontaneous redox reaction between AUR and HRP. The SSAO enzyme reaction was then initiated by adding 10 μL of the SSAO substrate, benzylamine (Sigma-Aldrich Catalog # B5136), and SSAO activity was measured in kinetic mode over a 30-120 minute sampling period (excit. 544 nm; emit 590 nm; cut off 570 nm; medium gain) to obtain IC50 values for enzyme activity in each treatment well.

Structures can show the parent of a compound that is named as a salt. Where only a bound is given, the exact number is not on record here.

Consider `NC/C(=C\F)COc1ccc(C23CCC(C(=O)N4CC5(CCOCC5)C4)(CC2)CC3)cc1` [Compound 2.82, (E)-(4-(4-((2-(Aminomethyl)-3-fluoroallyl)oxy)phenyl)bicyclo[2.2.2]octan-1-yl)(7-oxa-2-azaspiro[3.5]nonan-2-yl)methanone Hydrochloride], for which the IC50 was at most 10 nM.

Turning to `NC/C(=C\F)COc1ccc(C23CCC(C(=O)NCC(F)F)(CC2)CC3)cc1` [Compound 2.113, (E)-4-(4-((2-(aminomethyl)-3-fluoroallyl)oxy)phenyl)-N-(2,2-difluoroethyl)bicyclo[2.2.2] octane-1-carboxamide], the half-inhibitory concentration (IC50) is at most 10 nM.

For the molecule `CC1(C)CC(NC(=O)C23CCC(c4ccc(OC/C(=C/F)CN)cc4)(CC2)CC3)C1` [Compound 2.136, (E)-4-(4-((2-(aminomethyl)-3-fluoroallyl)oxy)phenyl)-N-(3,3-dimethylcyclobutyl)bicyclo [2.2.2]octane-1-carboxamide], the IC50 is at most 10 nM.

Take `NC/C(=C\F)COc1ccc(C23CCC(C(=O)NCCO)(CC2)CC3)cc1` [Compound 2.47, (E)-4-(4-((2-(aminomethyl)-3-fluoroallyl)oxy)phenyl)-N-(2-hydroxyethyl)bicyclo[2.2.2] octane-1-carboxamide]: the IC50 was at most 10 nM.

As to `NC/C(=C\F)COc1ccc(C23CCC(C(=O)N4CC(C(=O)O)C4)(CC2)CC3)cc1` [Compound 2.13, (E)-1-(4-(4-((2-(aminomethyl)-3-fluoroallyl)oxy)phenyl)bicyclo[2.2.2]octane-1-carbonyl)azetidine-3-carboxylic acid], the 50% inhibitory concentration (IC50) is at most 10 nM.

`NC/C(=C\F)COc1ccc(C23CCC(C(=O)NCC4(F)CCOCC4)(CC2)CC3)cc1` [Compound 2.33, (E)-4-(4-((2-(aminomethyl)-3-fluoroallyl)oxy)phenyl)-N-((4-fluorotetrahydro-2H-pyran-4-yl)methyl)bicyclo[2.2.2]octane-1-carboxamide]: the concentration for half-maximal inhibition (IC50) is at most 10 nM.

As for `CC(C)(CO)CNC(=O)C12CCC(c3ccc(OC/C(=C/F)CN)cc3)(CC1)CC2` [Compound 2.77, (E)-4-(4-((2-(aminomethyl)-3-fluoroallyl)oxy)phenyl)-N-(3-hydroxy-2,2-dimethylpropyl)bicyclo[2.2.2] octane-1-carboxamide], the IC50 is at most 10 nM.

With `CC(C)(C)NC(=O)C12CCC(c3ccc(OC/C(=C/F)CN)cc3)(CC1)CC2` [Compound 2.49, (E)-4-(4-((2-(aminomethyl)-3-fluoroallyl)oxy)phenyl)-N-(tert-butyl)bicyclo[2.2.2]octane-1-carboxamide], the IC50 is at most 10 nM.

For `COCCN(C)C(=O)C12CCC(c3ccc(OC/C(=C/F)CN)cc3)(CC1)CC2` [Compound 2.79, (E)-4-(4-((2-(aminomethyl)-3-fluoroallyl)oxy)phenyl)-N-(2-methoxyethyl)-N-methylbicyclo[2.2.2]octane-1-carboxamide], the IC50 was at most 10 nM.

Take `NC/C(=C\F)COc1ccc([C@]23CC4CC(C2)[C@@H](C(=O)NC2CCOCC2)C(C4)C3)cc1` (single isomer, unassigned) [Compound 6.02, syn-5-(4-(((E)-2-(Aminomethyl)-3-fluoroallyl)oxy)phenyl)-N-(tetrahydro-2H-pyran-4-yl)adamantane-2-carboxamide Hydrochloride]: the IC50 was at most 10 nM.

`CO[C@H]1CCN(C(=O)C23CCC(c4ccc(OC/C(=C/F)CN)cc4)(CC2)CC3)C1` [Compound 2.121, (S,E)-(4-(4-((2-(aminomethyl)-3-fluoroallyl)oxy)phenyl)bicyclo [2.2.2]octan-1-yl)(3-methoxypyrrolidin-1-yl)methanone]: the IC50 was at most 10 nM.

For the molecule `NC/C(=C\F)COc1ccc(C2(C(N)=O)CCCCC2)cc1` [Compound 1, (E)-1-(4-((2-(Aminomethyl)-3-fluoroallyl)oxy)phenyl)cyclohexanecarboxamide Hydrochloride], the IC50 is at most 10 nM.

For the origin of these results see US20200181104A1, “SSAO INHIBITORS AND USES THEREOF” (METACRINE, INC., priority 2018, published 2020).
